This note sets out measurements from patent publication US20160045446A1, “ORAL ADMINISTRATION PREPARATION WITH MASKED BITTERNESS OF SILODOSIN” (KISSEI PHARMACEUTICAL CO., LTD., priority 2013, published 2016).

A short description of this data set: Compatibility test of silodosin with polymer-based materials. Format: physicochemical. The note with it: silodosin:material 1:1 by mass, 40° C., 75% relative humidity, 4 weeks, visual examination. The procedure: Silodosin and a variety of polymer-based materials were mixed in the mass ratio of 1:1. The mixtures were stored at 40° C. under 75% relative humidity for 4 weeks, and the changes on blending, i.e. incompatibility, were checked. Degradation products were quantified by a liquid chromatography method and a degree of discoloration was checked by visual examination.
Samples equivalent to 20 mg of silodosin were weighed, and test solutions were prepared and analyzed by the liquid chromatography method. Each peak area was measured by an automatic integration method and a content rate of degradation product (KMD-3241) (%) was calculated by an area percentage method.
Detector: Ultraviolet Absorption Photometer (Wavelength: 225 nm)

Take `C[C@H](Cc1cc2c(c(C(N)=O)c1)N(CCCO)CC2)NCCOc1ccccc1OCC(F)(F)F` [Silodosin (reference), Silodosin]: the “Color change (fading)” value was “−”.
